Measured values: publication PMC10331583, “Control of fibrosis with enhanced safety via asymmetric inhibition of prolyl‐tRNA synthetase 1” (EMBO Molecular Medicine, 2023)
Where “and” joins values, the source holds several entries; their conditions need not be identical. Identical values can stand only once.

Assays:
[1] = Pharmacokinetic study (plasma, LC-MS/MS); type: in vivo, C57BL/6 male mice; details: 3, 10 and 30 mg/kg, single dose, intravenous and oral
Description: All experiments were performed according to the guidelines on the Institutional Animal Care and Use Committee of QuBEST BIO (QBIACUC‐A21112). Seven‐week‐old C57BL/6 male mice were purchased from Samtako (Osan, South Korea) and fed with regular chow and water ad libitum for 1 week before the experiments. Nine C57BL/6 mice in each group received three single ascending doses (3, 10, and 30 mg/kg) of DWN12088 formulated in normal saline intravenously and orally in fasted conditions. Post‐dosing serial blood samples were obtained using eye bleeding into heparinized capillary tubes with composite sampling (three mice per time point) at predetermined time points. The plasma was separated from the whole blood by centrifugation at 15,000 g for 2 min at 4°C, and then the proteins were precipitated using acetonitrile containing a deuterated‐labeled DWN12088 as an internal standard (IS).
The amount of DWN12088 in mouse plasma was measured by the AB Sciex ExionLC HPLC system connected to an AB Sciex 6500+ Qtrap mass spectrometer equipped with an electrospray ionization (ESI) source (AB Sciex LLC, Framingham, MA, USA). […] The gradient elution program was set as follows: 0–1 min, 10% B; 1.0–1.5 min, 10–95% B; 1.5–3.6 min, 95% B; 4.0–6.0 min, 10% B. Multiple reaction monitoring (MRM) was selected for the quantification of DWN12088 and IS in positive ion mode. […]

C57BL/6 mice = experiment: Bleomycin‐induced lung fibrosis, preventive model; type: in vivo; details: 3 weeks
Description: In a preventive model of bleomycin‐induced lung fibrosis, all experiments were conducted following the international guidelines on the ethical use of experimental animals and approved by the Institutional Animal Care and Use Committee of Aragen Bioscience (17‐0331‐M‐1). C57BL/6 mice (6–7‐week‐old, male, obtained from Simonsen Laboratories) were randomized into groups (n = 10 for each group) such that mean body weights were similar for the different groups. Oral administration of the compounds (vehicle, DWN12088, and pirfenidone) was started a day before oropharyngeal administration of 70 μl bleomycin (2 units/kg). DWN12088 (3, 10, 30 mg/kg) was treated once a day while 100 mg/kg pirfenidone was treated twice a day (200 mg/kg/day) for 3 weeks, and then the outcome was analyzed.

[2] = test system: WI‐26 VA4 cells stably expressing EV (empty vector); experiment: Cytotoxicity assay in cells stably expressing EV; details: WI-26 VA4 EV
[3] = Cytotoxicity assay in cells stably expressing EV; details: human; for activity at 72 h, 100 µM: 100000 nM; for activity at 72 h, 300 µM: 300000 nM
[4] = Cytotoxicity, % of control (single replicates, Experiment #1-#4), WI-26 VA4 EV
[5] = Cytotoxicity, % of control, average, WI-26 VA4 EV

O[C@H]1CCCN[C@@H]1CCCn1cnc2c(Cl)c(Cl)ccc21 [DWN12088]
plasma concentrations [1]: higher at 30 mg/kg | fibrotic properties (modified Ashcroft score, lung weight, collagen content in BALF) (C57BL/6 mice; 10 mg/kg once a day): alleviated fibrotic properties | fibrotic properties (modified Ashcroft score, lung weight, collagen content in BALF) (C57BL/6 mice; 30 mg/kg once a day): alleviated fibrotic properties | Cytotoxicity, % of control (single replicates, Experiment #1-#4) ([2]; 10 nM, 0.01 µM): 181.59 % of control and 174.53 % of control and 155.63 % of control and 131.53 % of control and 90.90 % of control and 98.37 % of control and 100.27 % of control and 114.43 % of control | Cytotoxicity, % of control (single replicates, Experiment #1-#4) ([2]; 30 nM, 0.03 µM): 144.67 % of control and 129.26 % of control and 139.92 % of control and 145.06 % of control and 96.12 % of control and 96.09 % of control and 105.17 % of control and 102.77 % of control | Cytotoxicity, % of control (single replicates, Experiment #1-#4) ([2]; 100 nM, 0.1 µM): 147.51 % of control and 118.70 % of control and 139.92 % of control and 137.75 % of control and 115.49 % of control and 112.19 % of control and 121.53 % of control and 122.89 % of control | Cytotoxicity, % of control (single replicates, Experiment #1-#4) ([2]; 300 nM, 0.3 µM): 145.14 % of control and 129.72 % of control and 157.05 % of control and 115.90 % of control and 103.62 % of control and 109.27 % of control and 123.14 % of control and 114.81 % of control | Cytotoxicity, % of control (single replicates, Experiment #1-#4) ([2]; 1000 nM, 1 µM): 147.27 % of control and 102.27 % of control and 132.28 % of control and 145.77 % of control and 98.60 % of control and 107.79 % of control and 107.19 % of control and 105.61 % of control | Cytotoxicity, % of control (single replicates, Experiment #1-#4) ([2]; 3000 nM, 3 µM): 108.37 % of control and 94.06 % of control and 109.81 % of control and 125.38 % of control and 98.33 % of control and 90.23 % of control and 106.43 % of control and 103.83 % of control | Cytotoxicity, % of control (single replicates, Experiment #1-#4) ([2]; 10000 nM, 10 µM): 112.55 % of control and 107.77 % of control and 118.32 % of control and 138.37 % of control and 93.86 % of control and 92.69 % of control and 99.78 % of control and 101.69 % of control | Cytotoxicity, % of control (single replicates, Experiment #1-#4) ([2]; 30000 nM, 30 µM): 48.06 % of control and 41.00 % of control and 64.15 % of control and 50.51 % of control and 27.36 % of control and 27.48 % of control and 37.20 % of control and 42.21 % of control | Cytotoxicity, % of control (single replicates, Experiment #1-#4) ([2]; 100000 nM, 100 µM): 28.49 % of control and 29.03 % of control and 30.62 % of control and 22.10 % of control and 18.35 % of control and 21.38 % of control and 22.01 % of control | Cytotoxicity, % of control (single replicates, Experiment #1-#4) ([2]; 300000 nM, 300 µM): 1.70 % of control and 1.82 % of control and 1.26 % of control and 1.75 % of control and 1.60 % of control and 1.89 % of control and 2.00 % of control | Cytotoxicity, % of control (single replicates, Experiment #1-#4) ([2]; 1000000 nM, 1000 µM): 0.17 % of control and -0.17 % of control and 0.30 % of control and -0.30 % of control (2×) and -0.44 % of control (2×) and -0.63 % of control | Cytotoxicity HillSlope (best-fit value) ([2]; log(inhibitor) vs. response, variable slope (four parameters)): -1.361 | Cytotoxicity LogIC50 (best-fit value) ([2]; log(inhibitor) vs. response, variable slope (four parameters), concentration in nM): 4.38 | CC50 at 72 h [3]: 24 µM | IC50 at 72 h [3]: 24 µM | activity at 72 h, 100 µM [3, 4]: 29.1% | activity at 72 h, 300 µM [3, 4]: 2.25% | activity at 72 h, 0.01 µM ([3]; Cytotoxicity, % of control, average, WI-26 VA4 EV, 10 nM): 131% | activity at 72 h, 0.03 µM ([3]; Cytotoxicity, % of control, average, WI-26 VA4 EV, 30 nM): 120% | activity at 72 h, 0.1 µM ([3]; Cytotoxicity, % of control, average, WI-26 VA4 EV, 100 nM): 127% | activity at 72 h, 0.3 µM ([3]; Cytotoxicity, % of control, average, WI-26 VA4 EV, 300 nM): 125% | activity at 72 h, 1 µM ([3]; Cytotoxicity, % of control, average, WI-26 VA4 EV, 1000 nM): 118% | activity at 72 h, 3 µM ([3]; Cytotoxicity, % of control, average, WI-26 VA4 EV, 3000 nM): 105% | activity at 72 h, 10 µM ([3]; Cytotoxicity, % of control, average, WI-26 VA4 EV, 10000 nM): 108% | activity at 72 h, 30 µM ([3]; Cytotoxicity, % of control, average, WI-26 VA4 EV, 30000 nM): 42.2% | activity at 72 h, 100 µM [3, 5]: 25.1% | activity at 72 h, 300 µM [3, 5]: 1.78% | activity at 72 h, 1000 µM ([3]; Cytotoxicity, % of control, average, WI-26 VA4 EV, 1000000 nM): -0.23%
